Assay results taken from patent publication US20250236599A1, “LIPID NANOPARTICLES FOR OLIGONUCLEOTIDE DELIVERY” (ZIPHIUS NV, priority 2021, published 2025).

Columns and labels:
[1] = LNP particle size, polydispersity index and charge by Zeta Sizer; type: physicochemical; conditions: LNP lipid:DOPE:Cholesterol:DMG-PEG 35:20:43.5:1.5, firefly luciferase saRNA; for Polydispersity Index (PI) / Z-average (nm): N/P approx. 40/1
Protocol: Cationic lipids, DOPE, Cholesterol and DMG-PEG lipid were solubilized in ethanol or DMSO at a molar ratio of 35:20:43.5:1.5 and a concentration of 100:25:20:25 μg/μL for C12-200 or 170:25:20:25 μg/μL for the comparator lipids. Lipid nanoparticles (LNP) were prepared by targeting an N/P ratio of approximately 40/1 with saRNA. Briefly, the firefly luciferase saRNA of approximately 9659 nucleotides was diluted to 0.5 mg/mL in 5 mM citrate buffer, pH 4.5. Microfluidic mixer (Ignite from Precision Nanosystems, California, USA) was used to mix the lipid solution with the saRNA aqueous solution at a ratio of about 1:3 (vol/vol) with total flow rates above 10 ml/min. The ethanol was then removed, and the external buffer replaced with 10 mM TRIS-HCL, PH 7.4, by dialysis. Finally, the lipid nanoparticles were filtered through a 0.2 μm pore sterile filter. Lipid nanoparticle particle size was 50-150 nm diameter and polydispersity index (PI) of 0.1-0.4 as determined by Zeta Sizer (Malvern Panalytical, UK). The charge of the formulation was also measured by Zeta Sizer and ranged between 20 to −20 mV.

[2] = saRNA loading / encapsulation efficiency, Quant-IT RiboGreen assay; type: physicochemical; conditions: LNP lipid:DOPE:Cholesterol:DMG-PEG 35:20:43.5:1.5, firefly luciferase saRNA
Protocol: The saRNA loading in LNP formulations was quantified using a Quant-IT RiboGreen assay (Thermo Fisher Scientific, Waltham, Massachusetts, USA) as previously described. 14 samples were diluted tenfold in 1x Tris HCL-EDTA (TE) buffer (10 mM Tris-HCL, 1 mM EDTA, pH 7.5) with or without 2% (v/v) Triton X-100 (Sigma-Aldrich, Saint Louis, Missouri, USA). Standard solutions were also prepared in 1xTE with or without 2% (v/v) Triton X-100 to account for any variation in fluorescence. The assay was performed according to the manufacturer's protocol. Samples were loaded on a black 96-well plate and analysed for fluorescence on a microplate reader (Tecan Infinite® 200 PRO) at an excitation of 485 nm and emission at 528 nm. Encapsulation efficiency was calculated between 80-100%.

[3] = system: expression of the luciferase saRNA; test: In vivo bioluminescent imaging after intramuscular injection of LNP-formulated luciferase saRNA; conditions: 1 μg LNP-formulated luciferase saRNA intramuscularly, female SWISS mice
Protocol: (§1) Female SWISS mice (6 weeks old) were purchased from Janvier Laboratories (Paris, France) and kept in individually ventilated cages with access to food and water ad libitum. Mice were anesthetized with isoflurane (Zoetis, Louvain-La-Neuve, Belgium) (5% for induction and 2% for maintenance) and intramuscularly injected with a total of 1 μg in 100 μL Tris-HCL (50 μL per leg) LNP-formulated luciferase saRNA (for each group n=7). The expression of the luciferase induced bioluminescence was measured via non-invasive In vivo bioluminescent imaging (In vivo Imaging System (IVIS) Lumina III, Perkin Elmer, Waltham, Massachusetts, USA), 10 minutes after subcutaneous injection of […] of D-luciferin (GoldBio, Saint Louis, Missouri, USA, #LUCK-1G) were measured in day 0 (before injection), day 1, day 3, day 5, day 7, day 10, day 15 and day 20.

[4] = Weight evolution of the animals following administration of LNPs; type: in vivo; conditions: female SWISS mice
Protocol: as §1

[5] = Day 1, 1 μg LNP-formulated saRNA intramuscularly
[6] = Day 3, 1 μg LNP-formulated saRNA intramuscularly
[7] = Day 5, 1 μg LNP-formulated saRNA intramuscularly
[8] = Day 7, 1 μg LNP-formulated saRNA intramuscularly
[9] = Day 10, 1 μg LNP-formulated saRNA intramuscularly
[10] = Day 15, 1 μg LNP-formulated saRNA intramuscularly
[11] = Day 20, 1 μg LNP-formulated saRNA intramuscularly

Zetapotential (mV) [1] | Polydispersity Index (PI) [1] | Z-average (nm) [1] | Encapsulation (%) [2] | Weight ([4]; Day 0) | Weight [4, 5] | Weight [4, 6] | Weight [4, 7] | Weight [4, 8] | Weight [4, 9] | Weight [4, 10] | Weight [4, 11] | SMILES | Bioluminescence expression of LNPs ([3]; Day 1) | Bioluminescence expression of LNPs ([3]; Day 3) | Bioluminescence expression of LNPs ([3]; Day 5) | Bioluminescence expression of LNPs ([3]; Day 7) | Bioluminescence expression of LNPs ([3]; Day 10) | Bioluminescence expression of LNPs ([3]; Day 15) | Bioluminescence expression of LNPs ([3]; Day 20)
−13.70 mV | 0.22 | 86.24 nm | 92.26% | 26.83 g | 25.36 g | 27.37 g | 26.96 g | 27.29 g | 27.20 g | 28.79 g | 29.60 g | CCCCCCC(CCCC)C(=O)OCCCCN(CCCCOC(=O)C(CCCC)CCCCCC)CCN1CCN(CCN(CCCCOC(=O)C(CCCC)CCCCCC)CCCCOC(=O)C(CCCC)CCCCCC)CC1 (stereo not shown) [Compound 9-33, ((piperazine-1,4-diylbis(ethane-2,1-diyl))bis(azanetriyl))tetrakis(butane-4,1-diyl) tetrakis(2-butyloctanoate)] | 3.79E+07 | 6.90E+08 | 1.45E+09 | 1.02E+09 | 5.76E+06 | 5.96E+05 | 1.21E+05
−7.92 mV | 0.16 | 71.78 nm | 94.93% | 27.77 g | 26.14 g | 28.33 g | 28.51 g | 28.49 g | 28.97 g | 30.24 g | 31.51 g | CCCCCCC(CCCC)C(=O)OCCCCCCN(CCCCCCOC(=O)C(CCCC)CCCCCC)CCN1CCN(CCN(CCCCCCOC(=O)C(CCCC)CCCCCC)CCCCCCOC(=O)C(CCCC)CCCCCC)CC1 (stereo not shown) [Compound 9-34, ((piperazine-1,4-diylbis(ethane-2,1-diyl))bis(azanetriyl))tetrakis(hexane-6,1-diyl) tetrakis(2-butyloctanoate)] | 4.79E+07 | 7.26E+08 | 7.42E+08 | 9.12E+08 | 4.70E+07 | 1.43E+05 | 3.37E+04
−10.52 mV | 0.20 | 105.70 nm | 96.25% | 29.09 g | 29.49 g | 31.49 g | 30.09 g | 30.36 g | 30.56 g | 31.33 g | 32.30 g | CCCCCCCCC(CCCCCC)C(=O)OCCCCN(CCCCOC(=O)C(CCCCCC)CCCCCCCC)CCN1CCN(CCN(CCCCOC(=O)C(CCCCCC)CCCCCCCC)CCCCOC(=O)C(CCCCCC)CCCCCCCC)CC1 (stereo not shown) [Compound 9-36, ((piperazine-1,4-diylbis(ethane-2,1-diyl))bis(azanetriyl))tetrakis(butane-4,1-diyl) tetrakis(2-hexyldecanoate)] | 4.28E+06 | 1.92E+08 | 8.44E+08 | 6.10E+08 | 5.56E+06 | 2.57E+05 | 1.16E+05
−9.93 mV | 0.27 | 89.43 nm | 92.32% | 28.21 g | 26.73 g | 28.81 g | 28.84 g | 28.84 g | 29.36 g | 30.63 g | 31.61 g | CCCCCCCCC(CCCCCC)C(=O)OCCCCCCN(CCCCCCOC(=O)C(CCCCCC)CCCCCCCC)CCN1CCN(CCN(CCCCCCOC(=O)C(CCCCCC)CCCCCCCC)CCCCCCOC(=O)C(CCCCCC)CCCCCCCC)CC1 (stereo not shown) [Compound 9-37, ((piperazine-1,4-diylbis(ethane-2,1-diyl))bis(azanetriyl)) tetrakis(hexane-6,1-diyl) tetrakis(2-hexyldecanoate)] | 1.07E+07 | 2.06E+08 | 4.17E+08 | 3.54E+08 | 2.11E+06 | 7.50E+04 | 2.65E+04
